Values of other authors in US7115654B2, “Caspase-1 inhibitors and methods for their use” (Sunesis Pharmaceuticals, Inc., priority 2002, dated 2006).

System: embryonic nigral cell suspension

For Ac-YVAD-cmk, the functional recovery (hemiparkinsonian rats) is given as “substantially improved”, the “survival of dopaminergic neurons” value (neurons grafted to hemiparkinsonian rats) is given as “increased” and the apoptosis in transplants (treatment of the embryonic nigral cell suspension) is given as “reduced”. The DNA fragmentation (treatment of the embryonic nigral cell suspension, in transplants) was “mitigated”.
